{"source": "paper PMC5218480", "about": "(PLoS ONE, 2017)", "test_system": "MV-4-11 cells", "experiment": "Gene expression microarray analysis (Affymetrix PrimeView) and GSEA", "format": "cell-based, human", "set-up": "RFU PODN (11730768_x_at) / Fold change /veh PODN (11730768_x_at) / RFU LINC00158 (11744669_a_at) / Fold change /veh LINC00158 (11744669_a_at) / RFU DUSP10 (11751237_a_at) / Fold change /veh DUSP10 (11751237_a_at) / RFU ID3 (11757404_x_at) / Fold change /veh ID3 (11757404_x_at) / RFU PLEKHG5 (11737974_s_at) / Fold change /veh PLEKHG5 (11737974_s_at) / RFU LRRC4B (11730491_at) / Fold change /veh LRRC4B (11730491_at) / RFU GIMAP4 (11747438_a_at) / Fold change /veh GIMAP4 (11747438_a_at) / RFU KRT8 (11758183_x_at) / Fold change /veh KRT8 (11758183_x_at) / RFU CNN1 (11734310_a_at) / Fold change /veh CNN1 (11734310_a_at) / RFU VPS37D (11726825_at) / Fold change /veh VPS37D (11726825_at) / RFU C10orf10 (11716522_x_at) / Fold change /veh C10orf10 (11716522_x_at) / RFU KIR2DL2 /// KIR2DL4 /// KIR2DL5A /// KIR2DL5B /// KIR2DS1 /// KIR2DS2 /// KIR2DS3 /// KIR2DS4 /// KIR3DL3 /// KIR3DL3 /// KIR3DS1 (11738374_at) / Fold change /veh KIR2DL2 /// KIR2DL4 /// KIR2DL5A /// KIR2DL5B /// KIR2DS1 /// KIR2DS2 /// KIR2DS3 /// KIR2DS4 /// KIR3DL3 /// KIR3DL3 /// KIR3DS1 (11738374_at) / RFU C1QL1 (11718748_at) / Fold change /veh C1QL1 (11718748_at) / RFU TMPRSS4 (11747572_a_at) / Fold change /veh TMPRSS4 (11747572_a_at) / RFU HAMP (11756126_x_at) / Fold change /veh HAMP (11756126_x_at) / RFU RNFT2 (11725882_a_at) / Fold change /veh RNFT2 (11725882_a_at) / RFU NR4A2 (11747474_a_at) / Fold change /veh NR4A2 (11747474_a_at) / RFU ABCC12 (11746883_a_at) / Fold change /veh ABCC12 (11746883_a_at) / RFU TMEM136 (11760407_x_at) / Fold change /veh TMEM136 (11760407_x_at) / RFU CLDN22 /// WWC2 (11732394_at) / Fold change /veh CLDN22 /// WWC2 (11732394_at) / RFU HLA-DPB1 (11760878_x_at) / Fold change /veh HLA-DPB1 (11760878_x_at) / RFU SPINT1 (11716480_a_at) / Fold change /veh SPINT1 (11716480_a_at) / RFU GAP43 (11754022_s_at) / Fold change /veh GAP43 (11754022_s_at) / RFU A4GNT (11735810_at) / Fold change /veh A4GNT (11735810_at) / RFU PRB3 (11715151_x_at) / Fold change /veh PRB3 (11715151_x_at) / RFU TUBB4B (11761932_at) / Fold change /veh TUBB4B (11761932_at) / RFU CAPN14 (11732068_a_at) / Fold change /veh CAPN14 (11732068_a_at) / RFU TMCC2 (11721928_a_at) / Fold change /veh TMCC2 (11721928_a_at) / RFU IRGQ (11745062_a_at) / Fold change /veh IRGQ (11745062_a_at) / RFU FAM174B (11720279_a_at) / Fold change /veh FAM174B (11720279_a_at) / RFU TMPRSS4 (11748680_a_at) / Fold change /veh TMPRSS4 (11748680_a_at) / RFU FAM212B (11763350_a_at) / Fold change /veh FAM212B (11763350_a_at) / RFU PLEKHG5 (11743358_a_at) / Fold change /veh PLEKHG5 (11743358_a_at) / RFU ZSCAN30 (11745921_a_at) / Fold change /veh ZSCAN30 (11745921_a_at) / RFU CMKLR1 (11741424_a_at) / Fold change /veh CMKLR1 (11741424_a_at) / RFU LOC101060620 /// MAPK8IP1 (11723275_at) / Fold change /veh LOC101060620 /// MAPK8IP1 (11723275_at) / RFU SPTSSB (11747773_x_at) / Fold change /veh SPTSSB (11747773_x_at) / RFU PRSS12 (11739890_at) / Fold change /veh PRSS12 (11739890_at) / RFU BIN1 (11741810_x_at) / Fold change /veh BIN1 (11741810_x_at) / RFU WNT11 (11732464_a_at) / Fold change /veh WNT11 (11732464_a_at) / RFU C10orf10 (11716521_a_at) / Fold change /veh C10orf10 (11716521_a_at) / RFU C5orf56 (11738089_at) / Fold change /veh C5orf56 (11738089_at) / RFU CYB561 (11721691_x_at) / Fold change /veh CYB561 (11721691_x_at) / RFU ANKRD19P (11752326_a_at) / Fold change /veh ANKRD19P (11752326_a_at) / RFU OR2T12 /// OR2T33 /// OR2T8 (11738714_s_at) / Fold change /veh OR2T12 /// OR2T33 /// OR2T8 (11738714_s_at) / RFU VCAN (11748164_a_at) / Fold change /veh VCAN (11748164_a_at) / RFU JSRP1 (11732532_at) / Fold change /veh JSRP1 (11732532_at) / RFU KRTAP10-11 (11738290_x_at) / Fold change /veh KRTAP10-11 (11738290_x_at) / RFU MYO3A (11730013_a_at) / Fold change /veh MYO3A (11730013_a_at) / RFU EBF3 (11725865_a_at) / Fold change /veh EBF3 (11725865_a_at) / RFU CAMK2N1 (11719241_x_at) / Fold change /veh CAMK2N1 (11719241_x_at) / RFU C5orf56 (11738088_a_at) / Fold change /veh C5orf56 (11738088_a_at) / RFU OLFML3 (11715873_a_at) / Fold change /veh OLFML3 (11715873_a_at) / RFU LOC100653217 /// NTM (11731650_a_at) / Fold change /veh LOC100653217 /// NTM (11731650_a_at) / RFU MAPK11 (11762145_a_at) / Fold change /veh MAPK11 (11762145_a_at) / RFU FIZ1 (11724087_x_at) / Fold change /veh FIZ1 (11724087_x_at) / RFU OASL (11726364_x_at) / Fold change /veh OASL (11726364_x_at) / RFU SOX15 (11748057_x_at) / Fold change /veh SOX15 (11748057_x_at) / RFU CD79A (11719716_a_at) / Fold change /veh CD79A (11719716_a_at) / RFU HIST1H1D (11736915_at) / Fold change /veh HIST1H1D (11736915_at) / RFU CASKIN2 (11723855_a_at) / Fold change /veh CASKIN2 (11723855_a_at) / RFU LOC730098 (11760151_x_at) / Fold change /veh LOC730098 (11760151_x_at) / RFU OR4N2 (11742367_at) / Fold change /veh OR4N2 (11742367_at) / RFU PRRT2 (11749266_a_at) / Fold change /veh PRRT2 (11749266_a_at) / RFU SNX32 (11753110_a_at) / Fold change /veh SNX32 (11753110_a_at) / RFU CDHR5 (11726645_a_at) / Fold change /veh CDHR5 (11726645_a_at) / RFU RCAN1 (11760418_a_at) / Fold change /veh RCAN1 (11760418_a_at) / RFU FAM167A (11723789_a_at) / Fold change /veh FAM167A (11723789_a_at) / RFU FAM26E (11764081_at) / Fold change /veh FAM26E (11764081_at) / RFU ISYNA1 (11749810_s_at) / Fold change /veh ISYNA1 (11749810_s_at) / RFU ACY1 (11761880_at) / Fold change /veh ACY1 (11761880_at) / RFU 11764098_at / Fold change /veh 11764098_at / RFU SAMD14 (11745864_x_at) / Fold change /veh SAMD14 (11745864_x_at) / RFU NPB (11741838_a_at) / Fold change /veh NPB (11741838_a_at) / RFU TMPRSS6 (11731388_a_at) / Fold change /veh TMPRSS6 (11731388_a_at) / RFU KRTAP10-2 (11738614_at) / Fold change /veh KRTAP10-2 (11738614_at) / RFU ARHGAP8 /// PRR5-ARHGAP8 (11727945_x_at) / Fold change /veh ARHGAP8 /// PRR5-ARHGAP8 (11727945_x_at) / RFU KRTAP5-7 /// NADSYN1 (11734609_at) / Fold change /veh KRTAP5-7 /// NADSYN1 (11734609_at) / RFU RASL12 (11751679_a_at) / Fold change /veh RASL12 (11751679_a_at) / RFU CDKN2B (11736163_a_at) / Fold change /veh CDKN2B (11736163_a_at) / RFU PRF1 (11729649_at) / Fold change /veh PRF1 (11729649_at) / RFU, ZNF638 /// ZNF638-IT1 / Fold change vs veh, ZNF638 /// ZNF638-IT1 / RFU, PANK3 / Fold change vs veh, PANK3 / RFU, SH3YL1 / Fold change vs veh, SH3YL1 / RFU, ZEB2 / Fold change vs veh, ZEB2 / RFU, NRIP1 / Fold change vs veh, NRIP1 / RFU, PTTG1IP / Fold change vs veh, PTTG1IP / RFU, CAPN2 / Fold change vs veh, CAPN2 / RFU, MED14 / Fold change vs veh, MED14 / RFU, SNORA58 / Fold change vs veh, SNORA58 / RFU, C1orf63 / Fold change vs veh, C1orf63 / RFU, LRRFIP1 / Fold change vs veh, LRRFIP1 / RFU, NDUFAF7 / Fold change vs veh, NDUFAF7 / RFU, SLC12A2 / Fold change vs veh, SLC12A2 / RFU, IBTK / Fold change vs veh, IBTK / RFU, ESF1 / Fold change vs veh, ESF1 / Fold change vs veh, TMEM50B / RFU, TAOK1 / Fold change vs veh, TAOK1 / RFU, ACBD3 / Fold change vs veh, ACBD3 / RFU, TMA16 / Fold change vs veh, TMA16 / RFU, RWDD3 / Fold change vs veh, RWDD3 / RFU, BCAT1 / Fold change vs veh, BCAT1 / RFU, EDEM3 / Fold change vs veh, EDEM3 / RFU, TMEM33 / Fold change vs veh, TMEM33 / RFU, WDR75 / Fold change vs veh, WDR75 / RFU, AHCTF1 / Fold change vs veh, AHCTF1 / RFU, TFRC / Fold change vs veh, TFRC / RFU, ZDHHC17 / Fold change vs veh, ZDHHC17 / RFU, NOM1 / Fold change vs veh, NOM1 / RFU, ARL8B / Fold change vs veh, ARL8B / RFU, ZBTB11 / Fold change vs veh, ZBTB11 / RFU, TAMM41 / Fold change vs veh, TAMM41 / RFU, KIAA1704 /// LOC100996395 / Fold change vs veh, KIAA1704 /// LOC100996395 / RFU, ING1 / Fold change vs veh, ING1 / RFU, TRMT61B / Fold change vs veh, TRMT61B / RFU, FUBP3 / Fold change vs veh, FUBP3 / RFU, TP53 / Fold change vs veh, TP53 / RFU, TNKS2 / Fold change vs veh, TNKS2 / RFU, ZFP14 / Fold change vs veh, ZFP14 / RFU, ACTR2 / Fold change vs veh, ACTR2 / RFU, PPP3R1 / Fold change vs veh, PPP3R1 / RFU, PIK3R1 / Fold change vs veh, PIK3R1 / RFU, HNRNPA1 / Fold change vs veh, HNRNPA1 / RFU, RNF170 / Fold change vs veh, RNF170 / RFU, ZNF28 / Fold change vs veh, ZNF28 / RFU, RNGTT / Fold change vs veh, RNGTT / RFU, OGT / Fold change vs veh, OGT / RFU, BRD1 / Fold change vs veh, BRD1 / RFU, MARS / Fold change vs veh, MARS / RFU, ZNF655 / Fold change vs veh, ZNF655 / RFU, FAHD1 / Fold change vs veh, FAHD1 / RFU, BDP1 / Fold change vs veh, BDP1 / RFU, LRRCC1 / Fold change vs veh, LRRCC1 / RFU, ARID1A / Fold change vs veh, ARID1A / RFU, ZNF146 / Fold change vs veh, ZNF146 / RFU, ZNF330 / Fold change vs veh, ZNF330 / RFU, GPN3 / Fold change vs veh, GPN3 / RFU, C9orf123 / Fold change vs veh, C9orf123 / RFU, N4BP2L2 / Fold change vs veh, N4BP2L2 / RFU, ARFIP1 / Fold change vs veh, ARFIP1 / RFU, FAM179B / Fold change vs veh, FAM179B / RFU, BCL10 / Fold change vs veh, BCL10 / RFU, UHRF1BP1L / Fold change vs veh, UHRF1BP1L / RFU, BET1 / Fold change vs veh, BET1 / RFU, CNOT2 / Fold change vs veh, CNOT2 / RFU, ZNF268 / Fold change vs veh, ZNF268 / Fold change vs veh, ZNF507 / RFU, DGCR2 / Fold change vs veh, DGCR2 / RFU, WDSUB1 / Fold change vs veh, WDSUB1 / Fold change vs veh, HSP90B1 /// MIR3652 / RFU, ADSS / Fold change vs veh, ADSS / RFU, GK / Fold change vs veh, GK / RFU, ZNF148 / Fold change vs veh, ZNF148 / RFU, TAF9 / Fold change vs veh, TAF9 / RFU, SLC1A5 / Fold change vs veh, SLC1A5 / RFU, SLMO2 / Fold change vs veh, SLMO2 / RFU, ABCC4 / Fold change vs veh, ABCC4 / RFU, LOC101060439 /// RAP1B / Fold change vs veh, LOC101060439 /// RAP1B / RFU, RFX7 / Fold change vs veh, RFX7 / RFU, GTPBP10 / Fold change vs veh, GTPBP10 / RFU, CNEP1R1 / Fold change vs veh, CNEP1R1 / RFU, BIVM-ERCC5 /// ERCC5 / Fold change vs veh, BIVM-ERCC5 /// ERCC5 / RFU, ILF3 / Fold change vs veh, ILF3 / RFU 11762660_at / Fold change /veh 11762660_at / RFU VCAN (11757783_s_at) / Fold change /veh VCAN (11757783_s_at) / RFU DDX43 (11728927_at) / Fold change /veh DDX43 (11728927_at) / RFU KRT8 (11758188_x_at) / Fold change /veh KRT8 (11758188_x_at) / RFU NKD1 (11759106_at) / Fold change /veh NKD1 (11759106_at) / RFU SRD5A1 (11742802_a_at) / Fold change /veh SRD5A1 (11742802_a_at) / RFU TPSAB1 /// TPSB2 (11721975_s_at) / Fold change /veh TPSAB1 /// TPSB2 (11721975_s_at) / RFU GSTM3 (11746129_a_at) / Fold change /veh GSTM3 (11746129_a_at) / RFU IL23R (11737362_x_at) / Fold change /veh IL23R (11737362_x_at) / RFU TMEM51 (11727254_a_at) / Fold change /veh TMEM51 (11727254_a_at) / RFU PIWIL2 (11732686_x_at) / Fold change /veh PIWIL2 (11732686_x_at) / RFU ORM1 (11744905_x_at) / Fold change /veh ORM1 (11744905_x_at) / RFU CCDC152 (11743942_at) / Fold change /veh CCDC152 (11743942_at) / RFU ECM1 (11717891_a_at) / Fold change /veh ECM1 (11717891_a_at) / RFU IL23R (11748794_a_at) / Fold change /veh IL23R (11748794_a_at) / RFU TNFAIP8L3 (11732012_x_at) / Fold change /veh TNFAIP8L3 (11732012_x_at) / RFU MBOAT4 (11741988_at) / Fold change /veh MBOAT4 (11741988_at) / RFU 11764193_at / Fold change /veh 11764193_at / RFU TMEM53 (11763286_at) / Fold change /veh TMEM53 (11763286_at) / RFU MAGEB2 (11727129_at) / Fold change /veh MAGEB2 (11727129_at) / RFU TMEM200A (11744735_a_at) / Fold change /veh TMEM200A (11744735_a_at) / RFU CCDC152 (11751479_a_at) / Fold change /veh CCDC152 (11751479_a_at) / RFU FAM211A (11726209_a_at) / Fold change /veh FAM211A (11726209_a_at) / RFU RGS16 (11746705_a_at) / Fold change /veh RGS16 (11746705_a_at) / RFU VCAN (11755009_s_at) / Fold change /veh VCAN (11755009_s_at) / RFU RHOB (11743442_s_at) / Fold change /veh RHOB (11743442_s_at) / RFU RGS16 (11720943_a_at) / Fold change /veh RGS16 (11720943_a_at) / RFU RGS16 (11720944_at) / Fold change /veh RGS16 (11720944_at) / RFU, VPS4B / Fold change vs veh, VPS4B / RFU, CREB1 / Fold change vs veh, CREB1 / RFU, DNAJC13 / Fold change vs veh, DNAJC13 / RFU, GNAQ / Fold change vs veh, GNAQ / RFU, CDK5R1 / Fold change vs veh, CDK5R1 / RFU, ZRANB3 / Fold change vs veh, ZRANB3 / RFU, CUL4A / Fold change vs veh, CUL4A / RFU, CCNY / Fold change vs veh, CCNY / RFU, UFL1 / Fold change vs veh, UFL1 / RFU, COG3 / Fold change vs veh, COG3 / RFU, DIAPH2 / Fold change vs veh, DIAPH2 / RFU, SKA2 / Fold change vs veh, SKA2 / RFU, AFF3 / Fold change vs veh, AFF3 / RFU, LMF1 / Fold change vs veh, LMF1 / RFU, IPO11 / Fold change vs veh, IPO11 / RFU, DFFB / Fold change vs veh, DFFB / RFU, FOXP1 / Fold change vs veh, FOXP1 / RFU, CARD8 / Fold change vs veh, CARD8 / RFU, STRN3 / Fold change vs veh, STRN3 / RFU, ADK / Fold change vs veh, ADK / RFU, RASSF2 / Fold change vs veh, RASSF2 / RFU, WIPF1 / Fold change vs veh, WIPF1 / RFU, LARP1B / Fold change vs veh, LARP1B / RFU, RASA1 / Fold change vs veh, RASA1 / RFU, RB1 / Fold change vs veh, RB1 / RFU, PPFIA1 / Fold change vs veh, PPFIA1 / RFU, MAT2A / Fold change vs veh, MAT2A / RFU, CCT5 / Fold change vs veh, CCT5 / RFU, WDR92 / Fold change vs veh, WDR92 / RFU, CUX1 / Fold change vs veh, CUX1 / RFU, TTC7A / Fold change vs veh, TTC7A / RFU, TMEM135 / Fold change vs veh, TMEM135 / RFU, DEPTOR / Fold change vs veh, DEPTOR / RFU, CPM / Fold change vs veh, CPM / RFU, DNAJB6 / Fold change vs veh, DNAJB6 / RFU, CACNA2D3 / Fold change vs veh, CACNA2D3 / RFU, DTX4 / Fold change vs veh, DTX4 / RFU, TFCP2 / Fold change vs veh, TFCP2 / RFU, GMCL1 /// GMCL1P1 / Fold change vs veh, GMCL1 /// GMCL1P1 / RFU, AEBP2 / Fold change vs veh, AEBP2 / RFU, SNHG1 /// SNORD22 /// SNORD25 /// SNORD26 /// SNORD27 /// SNORD28 /// SNORD29 /// SNORD31 / Fold change vs veh, SNHG1 /// SNORD22 /// SNORD25 /// SNORD26 /// SNORD27 /// SNORD28 /// SNORD29 /// SNORD31 / Fold change (Aza/veh), C12orf56 (ProbeSet 11735607_a_at) / Fold change (ACY-1035/veh), C12orf56 (ProbeSet 11735607_a_at) / Fold change (Aza/veh), FGFR1OP (ProbeSet 11751329_s_at) / Fold change (ACY-1035/veh), FGFR1OP (ProbeSet 11751329_s_at) / Fold change (Aza/veh), VPS36 (ProbeSet 11739960_a_at) / Fold change (ACY-1035/veh), VPS36 (ProbeSet 11739960_a_at) / RFU SYPL1 (11715823_x_at) / Fold change /veh SYPL1 (11715823_x_at) / RFU IGFBP7 (11715501_s_at) / Fold change /veh IGFBP7 (11715501_s_at) / RFU REEP3 (11722064_at) / Fold change /veh REEP3 (11722064_at) / RFU IGLL1 (11728026_x_at) / Fold change /veh IGLL1 (11728026_x_at): dose or concentration left out as unconfirmed", "conditions": "ProbeSet 11719185_x_at; LIST B"}
{"smiles": "Nc1ncn([C@@H]2O[C@H](CO)[C@@H](O)[C@H]2O)c(=O)n1", "note": "[azacitidine]", "values": [{"measurement": "RFU, N4BP2L2", "value": 91.08, "unit": "RFU"}]}
